Read-outs that look alike come from different tables or passages of the source.
Assays:
[1] = molecular target: BRD4 bromodomains (Homo sapiens, UniProt O60885); experiment: NanoBRET target engagement assay, both bromodomains; type: cell-based
Protocol: (§1) The assay was performed as described previously.[17],[59] In brief, BRD4 bromodomains and full-length HDACs were obtained as plasmids cloned in-frame with a terminal NanoLuc fusion (Promega). Plasmids were transfected into HEK293T cells using FuGENE HD (Promega, E2312), and proteins were allowed to express for 20 h. Serially diluted inhibitor and the corresponding NanoBRET Tracer (Promega) at a concentration determined previously as the tracer KD, app were pipetted into white 384-well plates (Greiner #781207) for BRD assays or white 96-well plates (Corning #3600) for HDAC using an Echo acoustic dispenser (Labcyte). The corresponding protein-transfected cells were added and reseeded at a density of 2 × 10^5 cells/mL after trypsinization and resuspended in Opti-MEM without phenol red (Life Technologies). The system was allowed to equilibrate for 2 h at 37 °C/5% CO2 prior to BRET measurements. To measure BRET, NanoBRET NanoGlo substrate + Extracellular NanoLuc Inhibitor (Promega, N2540) was added as per the manufacturer’s protocol, and filtered luminescence was measured on a PHERAstar plate reader (BMG Labtech) equipped with a luminescence filter pair (450 nm BP filter (donor) and 610 nm LP filter (acceptor)). For lysed-mode NanoBRET experiments, digitonin (Promega, #G9441) was added as per the manufacturer’s instructions to a final concentration of […].

[2] = molecular target: T1, BRD4 BD1 (Homo sapiens, UniProt O60885); experiment: NanoBRET target engagement assay (HEK293T); type: cell-based; parameters: BRD4 bromodomains and full-length HDACs were obtained as plasmids cloned in-frame with a terminal NanoLuc fusion; host or cells: HEK293T; details: intact cells
Protocol: as §1

[3] = molecular target: BRD4 BD2 (Homo sapiens, UniProt O60885); experiment: NanoBRET target engagement assay (HEK293T); type: cell-based; parameters: BRD4 bromodomains and full-length HDACs were obtained as plasmids cloned in-frame with a terminal NanoLuc fusion; host or cells: HEK293T; details: intact cells
Protocol: as §1

[4] = molecular target: T1, BRD4 BD1; experiment: Isothermal titration calorimetry; type: binding; parameters: BRD4 BD1 (residues N44-E168) for structural studies was subcloned in the pNIC28-Bsa4 vector; His6 (followed by a TEV site) (N, cleaved yes); made in house; host or cells: Escherichia coli BL21(D3)-R3-pRARE2 Rosetta; details: for ITC -TΔS / ITC Ka / ITC n (stoichiometry) / ITC ΔG / ITC ΔH / ITC ΔS / Kd: 15 °C
Protocol: ITC measurements were performed using a Nano ITC microcalorimeter (TA Instruments, New Castle, Pennsylvania). For all experiments, reverse titration was performed (syringe containing the protein solution; cell containing the ligand) in ITC buffer containing 25 mM HEPES, pH 7.5, 150 mM NaCl, 0.5 mM TCEP, and 5% glycerol. All compounds were diluted from 50 mM DMSO stocks to 20 μΜ in ITC buffer, and BRD4-BD1 was diluted to 120 μΜ in a DMSO-adjusted ITC buffer. BRD4-BD1 (120 μΜ) was titrated into the compound solution (20 μΜ) with an initial injection (4 μL) followed by 29 identical injections (8 μL), at a rate of 0.5 μL/s and with 150 or 200 s intervals. All experiments were performed at 15 °C while stirring at 350 rpm. The heat of dilution was determined by independent titrations (protein into buffer) and subtracted from the experimental raw data. Data were processed using NanoAnalyze software (version 3.10.0) provided by the instrument manufacturer. The first injection was excluded from the analysis, and fitted curves were generated by applying the independent model (single binding site) to the raw data. Complete thermodynamic data analysis can be found in Table S2.

[5] = molecular target: T2, PCAFA (Homo sapiens, UniProt Q92831); experiment: DSF bromodomain selectivity panel; type: binding; details: 10 μM compound
T2 construct: purchased in-house (SGC Frankfurt recombinant bromodomain DSF panel)
T2 sequence (Q92831 whole entry): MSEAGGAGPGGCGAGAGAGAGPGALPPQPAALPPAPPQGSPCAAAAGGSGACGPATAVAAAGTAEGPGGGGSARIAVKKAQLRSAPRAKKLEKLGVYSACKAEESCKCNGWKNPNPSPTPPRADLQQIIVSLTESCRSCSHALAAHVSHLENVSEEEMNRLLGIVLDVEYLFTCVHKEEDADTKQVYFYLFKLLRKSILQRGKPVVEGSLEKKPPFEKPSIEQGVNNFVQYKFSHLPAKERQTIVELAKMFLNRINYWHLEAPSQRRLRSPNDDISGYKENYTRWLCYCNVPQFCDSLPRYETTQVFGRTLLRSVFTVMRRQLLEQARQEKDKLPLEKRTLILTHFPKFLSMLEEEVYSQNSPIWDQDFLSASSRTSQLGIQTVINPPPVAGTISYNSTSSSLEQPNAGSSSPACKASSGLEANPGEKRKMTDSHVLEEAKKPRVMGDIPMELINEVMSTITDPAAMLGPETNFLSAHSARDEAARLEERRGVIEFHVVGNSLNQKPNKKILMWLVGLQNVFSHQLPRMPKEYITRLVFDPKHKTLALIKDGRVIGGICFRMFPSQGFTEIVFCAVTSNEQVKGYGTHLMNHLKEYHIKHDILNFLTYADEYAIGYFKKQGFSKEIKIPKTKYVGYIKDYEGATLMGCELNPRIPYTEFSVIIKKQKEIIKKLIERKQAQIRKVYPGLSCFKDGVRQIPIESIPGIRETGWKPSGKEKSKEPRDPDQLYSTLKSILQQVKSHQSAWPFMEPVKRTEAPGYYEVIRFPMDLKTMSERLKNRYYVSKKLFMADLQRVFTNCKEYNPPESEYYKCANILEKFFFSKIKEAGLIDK
Protocol: (§2) The effects of inhibitor binding on the apparent melting temperature of recombinant bromodomains were determined by DSF in a 96-well plate (Starlab) at a protein concentration of 2 μM with 10 μΜ compound in buffer containing 25 mM HEPES, pH 7.5, 150 mM NaCl, and 0.5 mM TCEP. […] Protein unfolding profiles were recorded using an MX3005P real-time qPCR instrument (Agilent; excitation/emission filters = 492/610 nm) while increasing the temperature from 25 to 95 °C at a heating rate of 3 °C/min. Tm values were calculated after fitting the fluorescence curves to the Boltzmann equation. Differences in melting temperature upon compound binding are given as ΔTm = Tm (protein with inhibitor) – Tm (protein with DMSO control). Measurements were performed in triplicates.

[6] = molecular target: T3, PB1A(4) (Homo sapiens, UniProt Q86U86); experiment: DSF bromodomain selectivity panel; type: binding; details: 10 μM compound
T3 construct: PB1A(4); purchased in-house (SGC Frankfurt recombinant bromodomain DSF panel)
T3 sequence (Q86U86 496-637 limits assumed): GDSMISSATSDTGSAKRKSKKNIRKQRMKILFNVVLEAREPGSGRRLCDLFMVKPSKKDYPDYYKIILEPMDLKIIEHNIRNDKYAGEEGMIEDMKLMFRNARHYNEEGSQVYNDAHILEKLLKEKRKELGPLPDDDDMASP
Protocol: as §2

[7] = molecular target: T4, EP300A (Homo sapiens, UniProt Q09472); experiment: DSF bromodomain selectivity panel; type: binding; details: 10 μM compound
T4 construct: purchased in-house (SGC Frankfurt recombinant bromodomain DSF panel)
T4 sequence (Q09472 whole entry): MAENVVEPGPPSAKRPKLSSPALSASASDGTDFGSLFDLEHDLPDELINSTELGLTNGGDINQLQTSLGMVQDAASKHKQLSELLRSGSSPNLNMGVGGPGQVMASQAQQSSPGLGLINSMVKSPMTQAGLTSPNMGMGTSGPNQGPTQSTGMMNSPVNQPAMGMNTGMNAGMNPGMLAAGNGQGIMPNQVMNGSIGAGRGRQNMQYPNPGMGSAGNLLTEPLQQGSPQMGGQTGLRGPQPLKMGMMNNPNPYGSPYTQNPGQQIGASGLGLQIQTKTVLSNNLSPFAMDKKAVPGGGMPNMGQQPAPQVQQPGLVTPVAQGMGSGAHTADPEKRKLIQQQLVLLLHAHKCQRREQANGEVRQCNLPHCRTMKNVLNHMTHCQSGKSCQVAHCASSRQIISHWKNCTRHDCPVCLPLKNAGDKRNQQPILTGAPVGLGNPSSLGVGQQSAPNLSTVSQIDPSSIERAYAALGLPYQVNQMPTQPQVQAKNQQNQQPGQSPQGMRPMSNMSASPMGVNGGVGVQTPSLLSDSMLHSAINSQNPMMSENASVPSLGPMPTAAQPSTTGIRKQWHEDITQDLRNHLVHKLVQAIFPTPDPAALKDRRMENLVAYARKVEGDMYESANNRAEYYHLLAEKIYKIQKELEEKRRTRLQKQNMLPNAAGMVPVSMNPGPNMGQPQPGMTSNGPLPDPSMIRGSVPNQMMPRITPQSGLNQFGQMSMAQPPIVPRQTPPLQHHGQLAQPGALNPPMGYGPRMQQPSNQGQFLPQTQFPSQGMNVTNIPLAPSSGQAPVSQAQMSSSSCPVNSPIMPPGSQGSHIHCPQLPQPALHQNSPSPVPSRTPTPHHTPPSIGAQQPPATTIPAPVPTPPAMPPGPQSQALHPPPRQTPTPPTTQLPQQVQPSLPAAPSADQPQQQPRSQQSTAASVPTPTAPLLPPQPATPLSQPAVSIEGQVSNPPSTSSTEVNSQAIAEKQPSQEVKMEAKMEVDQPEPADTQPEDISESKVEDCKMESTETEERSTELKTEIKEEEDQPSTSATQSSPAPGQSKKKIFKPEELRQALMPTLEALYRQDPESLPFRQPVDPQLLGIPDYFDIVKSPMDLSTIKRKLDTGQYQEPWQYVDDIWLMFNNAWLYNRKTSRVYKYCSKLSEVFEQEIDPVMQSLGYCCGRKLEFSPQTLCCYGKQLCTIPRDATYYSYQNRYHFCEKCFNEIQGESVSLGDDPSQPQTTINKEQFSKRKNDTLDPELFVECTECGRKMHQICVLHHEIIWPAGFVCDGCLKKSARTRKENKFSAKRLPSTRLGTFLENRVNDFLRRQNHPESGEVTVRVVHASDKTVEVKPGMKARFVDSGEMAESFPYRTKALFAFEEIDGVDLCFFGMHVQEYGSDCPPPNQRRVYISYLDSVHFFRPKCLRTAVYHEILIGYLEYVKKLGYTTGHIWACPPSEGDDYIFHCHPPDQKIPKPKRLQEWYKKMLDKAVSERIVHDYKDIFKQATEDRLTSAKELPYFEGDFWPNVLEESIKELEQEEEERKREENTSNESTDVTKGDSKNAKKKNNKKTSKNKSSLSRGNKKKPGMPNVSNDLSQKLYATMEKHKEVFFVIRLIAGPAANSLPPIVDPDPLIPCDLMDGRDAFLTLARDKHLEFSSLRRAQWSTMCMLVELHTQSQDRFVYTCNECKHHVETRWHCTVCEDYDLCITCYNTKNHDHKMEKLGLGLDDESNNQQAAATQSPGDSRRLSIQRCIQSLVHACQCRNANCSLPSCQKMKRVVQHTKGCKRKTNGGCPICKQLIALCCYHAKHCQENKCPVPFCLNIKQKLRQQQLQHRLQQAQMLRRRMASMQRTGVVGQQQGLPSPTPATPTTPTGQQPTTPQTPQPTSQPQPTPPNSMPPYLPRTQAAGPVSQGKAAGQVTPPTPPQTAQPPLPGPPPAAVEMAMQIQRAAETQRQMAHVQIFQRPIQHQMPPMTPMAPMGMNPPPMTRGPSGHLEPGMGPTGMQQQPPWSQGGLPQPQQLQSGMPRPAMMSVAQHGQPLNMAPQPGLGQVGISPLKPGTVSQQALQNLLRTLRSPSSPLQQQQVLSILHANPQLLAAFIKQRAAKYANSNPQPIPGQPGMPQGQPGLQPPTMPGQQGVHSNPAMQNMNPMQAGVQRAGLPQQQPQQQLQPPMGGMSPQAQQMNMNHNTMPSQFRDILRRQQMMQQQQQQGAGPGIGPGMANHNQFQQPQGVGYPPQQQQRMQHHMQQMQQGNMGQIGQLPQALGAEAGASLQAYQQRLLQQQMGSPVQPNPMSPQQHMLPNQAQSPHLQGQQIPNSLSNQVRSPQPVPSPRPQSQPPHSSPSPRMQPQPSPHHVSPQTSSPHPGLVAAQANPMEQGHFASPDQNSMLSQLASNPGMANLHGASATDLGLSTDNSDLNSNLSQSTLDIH
Protocol: as §2

[8] = molecular target: T5, SMARCA2A (Homo sapiens, UniProt P51531); experiment: DSF bromodomain selectivity panel; type: binding; details: 10 μM compound
T5 construct: purchased in-house (SGC Frankfurt recombinant bromodomain DSF panel)
T5 sequence (P51531 whole entry): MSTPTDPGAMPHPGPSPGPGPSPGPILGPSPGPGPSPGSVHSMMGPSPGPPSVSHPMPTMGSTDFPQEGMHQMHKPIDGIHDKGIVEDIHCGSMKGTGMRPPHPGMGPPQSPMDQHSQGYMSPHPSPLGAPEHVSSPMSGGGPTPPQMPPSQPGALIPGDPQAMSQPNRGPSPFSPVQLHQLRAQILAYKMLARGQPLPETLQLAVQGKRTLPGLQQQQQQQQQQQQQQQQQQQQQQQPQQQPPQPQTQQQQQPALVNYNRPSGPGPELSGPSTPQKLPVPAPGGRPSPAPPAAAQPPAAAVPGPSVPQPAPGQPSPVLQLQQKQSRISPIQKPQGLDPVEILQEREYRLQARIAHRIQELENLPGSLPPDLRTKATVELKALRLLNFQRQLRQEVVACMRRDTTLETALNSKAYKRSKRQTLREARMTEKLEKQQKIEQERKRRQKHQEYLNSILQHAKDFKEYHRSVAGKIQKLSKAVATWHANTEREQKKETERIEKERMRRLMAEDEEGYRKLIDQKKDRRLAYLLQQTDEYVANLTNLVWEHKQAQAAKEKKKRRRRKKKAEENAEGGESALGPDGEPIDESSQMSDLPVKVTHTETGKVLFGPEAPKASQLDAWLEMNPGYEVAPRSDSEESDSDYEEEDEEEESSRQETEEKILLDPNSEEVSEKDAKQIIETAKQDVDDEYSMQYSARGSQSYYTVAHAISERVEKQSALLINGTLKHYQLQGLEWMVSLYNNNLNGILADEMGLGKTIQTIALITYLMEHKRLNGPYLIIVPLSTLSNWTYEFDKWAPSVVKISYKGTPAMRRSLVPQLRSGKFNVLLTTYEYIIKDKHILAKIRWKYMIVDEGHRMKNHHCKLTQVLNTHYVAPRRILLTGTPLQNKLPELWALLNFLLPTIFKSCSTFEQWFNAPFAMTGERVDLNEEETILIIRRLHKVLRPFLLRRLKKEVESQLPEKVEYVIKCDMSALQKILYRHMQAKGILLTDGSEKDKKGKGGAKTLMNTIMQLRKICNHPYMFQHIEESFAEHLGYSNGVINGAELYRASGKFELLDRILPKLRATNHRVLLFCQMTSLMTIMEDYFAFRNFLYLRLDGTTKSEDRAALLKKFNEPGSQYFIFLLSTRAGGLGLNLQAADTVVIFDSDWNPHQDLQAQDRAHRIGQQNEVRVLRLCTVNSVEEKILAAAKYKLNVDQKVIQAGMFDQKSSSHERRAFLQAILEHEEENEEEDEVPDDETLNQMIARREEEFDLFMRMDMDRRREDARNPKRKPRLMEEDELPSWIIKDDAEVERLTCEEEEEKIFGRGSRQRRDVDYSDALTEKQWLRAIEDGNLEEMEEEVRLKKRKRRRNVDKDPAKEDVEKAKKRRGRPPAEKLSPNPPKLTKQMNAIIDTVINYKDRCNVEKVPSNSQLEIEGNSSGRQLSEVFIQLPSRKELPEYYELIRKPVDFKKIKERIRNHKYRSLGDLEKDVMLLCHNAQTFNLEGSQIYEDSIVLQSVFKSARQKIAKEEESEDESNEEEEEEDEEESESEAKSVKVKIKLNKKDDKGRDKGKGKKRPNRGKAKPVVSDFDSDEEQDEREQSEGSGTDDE
Protocol: as §2

[9] = molecular target: T6, ATAD2A (Homo sapiens, UniProt Q6PL18); experiment: DSF bromodomain selectivity panel; type: binding; details: 10 μM compound
T6 construct: purchased in-house (SGC Frankfurt recombinant bromodomain DSF panel)
Protocol: as §2

[10] = system: TP63 mRNA in NMC HCC2429 cells; experiment: Quantitative RT-PCR of oncogenic drivers; type: cell-based; details: HCC2429, 6 h, 1 μΜ compound
Protocol: (§3) Total RNA was extracted from cell culture using the Maxwell RSC simply RNA Cells Kit (Promega) according to the manufacturer’s protocol. cDNA was synthesized using PrimeScript Reverse Transcriptase (TakaRa) and amplified using homemade PCR master mix. The amplicon was detected by EvaGreen Dye using a LightCycler 480 instrument (Roche). PCR conditions were 5 min at 95 °C, followed by 45 cycles of 95 °C for 10 s, 59 °C for 10 s, and 72 °C for 20 s. The relative gene expression levels were normalized to GUSB and calculated using the 2^–ΔΔC^t method.

[11] = system: MYC mRNA in NMC HCC2429 cells; experiment: Quantitative RT-PCR of oncogenic drivers; type: cell-based; details: HCC2429, 6 h, 1 μΜ compound
Protocol: as §3

[12] = 95% confidence level, read-out: ITC Kd

Structure (SMILES) | EC50 ([1]; BD1 and BD2, intact cells, read-out: NanoBRET EC50 BRD4 bromodomains) [nM] | EC50 [2] [nM] | EC50 [3] [nM] | ITC -TΔS [4] [kcal/mol] | ITC Ka [4] [Mˉ¹] | ITC n (stoichiometry) [4] | ITC ΔG [4] [kcal/mol] | ITC ΔH [4] [kcal/mol] | ITC ΔS [4] [cal/mol·K] | Kd [4, 12] [nM] | Mean Tm PCAFA [5] [K] | Mean Tm PB1A(4) [6] [K] | Mean Tm EP300A [7] [K] | Mean Tm SMARCA2A [8] [K] | Mean Tm ATAD2A [9] [K] | TP63 mRNA levels [10] | MYC mRNA levels [11] | fold increased binding affinity to BRD4 BD1 in ITC vs NB462 [4] [fold] | Kd ([4]; read-out: ITC Kd BRD4 BD1) [nM] | EC50 ([1]; intact and permeabilized cells, read-out: NanoBRET EC50 both BRD4 bromodomains) [nM]
Cn1cc(-c2ccc(C(=O)Nc3ccccc3N)cc2)c2cc[nH]c2c1=O [NB462] | 100 to 400 | 250 ± 20 | 190 ± 20 | 1.371 | 6.58E+06 | 0.996 ± 0.029 | -8.99 | -10.36 ± 0.501 | -4.759 | 152 | 0.1 ± 0.4 | 0.1 ± 0.1 | 2.0 ± 0.3 | -0.1 ± 0.1 | 0.4 ± 0.2 |  |  |  |  | 
Cn1cc(-c2ccc(C(=O)Nc3ccccc3N)nc2)c2cc[nH]c2c1=O [NB500] |  | 240 ± 20 | 160 ± 40 | -1.832 | 2.18E+07 | 1.003 ± 0.022 | -9.676 | -7.844 ± 0.360 | 6.358 | 45.8 |  |  |  |  |  | strongest effect | strongest effect | 3 | 46 | 
Cn1cc(-c2ccc(C(=O)Nc3cc(-c4ccccc4)ccc3N)cc2)c2cc[nH]c2c1=O [NB503] |  | 420 ± 110 | 520 ± 180 |  |  |  |  |  |  |  | 1.9 ± 0.2 | 1.0 ± 0.6 | 1.0 ± 0.3 | 1.2 ± 0.5 | -1.3 ± 0.1 | strongest effect | strongest effect |  |  | 
Cn1cc(-c2ccc(C(=O)Nc3cc(-c4ccccc4)ccc3N)nc2)c2cc[nH]c2c1=O [NB512] |  | 360 ± 130 | 250 ± 120 |  |  |  |  |  |  |  |  |  |  |  |  |  |  |  |  | 100 to 400

Reference: paper PMC10878397, “Development of Potent Dual BET/HDAC Inhibitors via Pharmacophore Merging and Structure-Guided Optimization” (ACS Chemical Biology, 2024)
